Values after ≈ are worked out from the molar mass of the structure shown. Positions of bridges follow the written chain, without caps; N, C: chain ends. Non-standard residues stand in square brackets, D forms with d. Residues, ends and D or L forms follow the SMILES beside them. Groups on a side chain read outwards from the residue. Chains are numbered I, II in the order given. *: point of attachment. LeuLys(Leu) = CC(C)C[C@H](N)C(=O)NCCCC[C@H](NC(=O)[C@@H](N)CC(C)C)C(=O)*; Lauroyl = CCCCCCCCCCCC(=O)*; Octanoyl = CCCCCCCC(=O)*; dDap = NC[C@@H](N)C(=O)O; Dab = NCC[C@H](N)C(=O)O
Assays:
Assay type in all cases: cell-based
[1] = system: Pseudomonas aeruginosa (strain PA01); test: microbe, parasite or virus in culture; conditions: strain
Summary of the method: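 P. aeruginosa PAO1 grown overnight in LB, diluted to OD600 0.001 and mixed with ⅔-step peptide dilutions, then incubated at 37 °C for 18–24 h. After MTT staining, the lowest concentration with no visible growth was read by eye as the MIC.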

[2] = system: Bacillus subtilis (strain BR151); conditions: strain BR151
Protocol: (§1) Antimicrobial activity was assayed against Bacillus subtilis (strain BR151), Escherichia coli (strain DH5α) and Pseudomonas aeruginosa (strain PA01). Microdilution broth method was used to determine the minimal inhibitory concentration (MIC). A colony of bacteria was grown in LB-medium overnight at 37° C. The concentration was quantified by measuring absorbance at 600 nm and diluted to OD600=0.1 (1×10^8 CFU/mL). The samples were prepared as stock solutions of 1 mg mL^−1 in H2O and diluted serially by ⅔ in nutrient LB in a 96-well microtiterplate (Cornstar, polypropylene, untreated). The sample solutions (50 μL) were mixed with the diluted bacterial suspension with an OD600 nm of 0.001 (50 μL). […] The plates were incubated at 37° C. until satisfactory growth (18-24 h). For each test, two columns of the plate were kept for sterility control (SC, broth only) and growth control (GC, broth with bacterial inoculums, no antibiotics). 10 μL of a solution of MTT (0.1% in H2O) was added to each well. The minimal inhibitory concentration (MIC) was defined as the lowest concentration of the antimicrobial substance (peptide dendrimer) that inhibited visible growth of the tested bacteria (yellow) with the unaided eye. For microbiological study the linear peptide LysTyrLysLysAlaLeuLysLysLeuAlaLysLeuLeu (SEQ ID No. 1) was used as reference.
(§2) The AMPD library was tested for their antimicrobial activity against B. subtilis BR151, a Gram-positive bacterium and E. coli DH5α, another Gram-negative bacterium, to cover a broader spectrum of different bacteria. […] Therefore no explicit SAR can be established, but clearly the hydrophobic amino acids Ala and Tyr seem to have a significant influence in reducing activity.

[3] = system: Escherichia coli (strain DH5α); conditions: DH5α
Protocol: as §1, §2

| MIC P. aeruginosa PAO1 [1] [µg/mL] | MIC B. subtilis BR151 [2] [µg/mL] | MIC E. coli DH5α [3] [µg/mL] | Compound |
| --- | --- | --- | --- |
| 6 (≈ 1.42 µM) | 2 (≈ 0.472 µM) | 2 (≈ 0.472 µM) | CC(C)C[C@@H](NC(=O)[C@@H](CCCCN)NC(=O)[C@@H](CNC(=O)[C@@H](CC(C)C)NC(=O)[C@@H](CCCCN)NC(=O)[C@@H](CNC(=O)[C@@H](CC(C)C)NC(=O)[C@@H](CCCCN)NC(=O)[C@@H](CNC(=O)[C@@H](CC(C)C)NC(=O)[C@H](N)CCCCN)NC(=O)[C@@H](CC(C)C)NC(=O)[C@H](N)CCCCN)NC(=O)[C@@H](CC(C)C)NC(=O)[C@@H](CCCCN)NC(=O)[C@@H](CNC(=O)[C@@H](CC(C)C)NC(=O)[C@H](N)CCCCN)NC(=O)[C@@H](CC(C)C)NC(=O)[C@H](N)CCCCN)NC(=O)[C@@H](CC(C)C)NC(=O)[C@@H](CCCCN)NC(=O)[C@@H](CNC(=O)[C@@H](CC(C)C)NC(=O)[C@@H](CCCCN)NC(=O)[C@@H](CNC(=O)[C@@H](CC(C)C)NC(=O)[C@H](N)CCCCN)NC(=O)[C@@H](CC(C)C)NC(=O)[C@H](N)CCCCN)NC(=O)[C@@H](CC(C)C)NC(=O)[C@@H](CCCCN)NC(=O)[C@@H](CNC(=O)[C@@H](CC(C)C)NC(=O)[C@H](N)CCCCN)NC(=O)[C@@H](CC(C)C)NC(=O)[C@H](N)CCCCN)C(N)=O [MSt-154, (kl)8(bkl)4(bkl)2(bkl)] (I: H-[dK][dL][dDap]([dL-dK])[dK][dL][dDap][dK][dL][dDap][dK][dL]-NH2 / II: H-[dK][dL][dDap]([dL-dK])[dK][dL][dDap][dK][dL] / III: H-[dK][dL][dDap]([dL-dK])[dK][dL] / IV: H-[dK][dL][dDap]([dL-dK])[dK][dL]; amide I:6-IV:C, I:9-II:C, II:6-III:C) |
| 1 (≈ 0.206 µM) | 4 (≈ 0.826 µM) | 1 (≈ 0.206 µM) | CCCCCCCCCCCC(=O)NCCCC[C@H](NC(=O)[C@H](CC(C)C)NC(=O)[C@H](CCCCN)NC(=O)[C@H](CCCCNC(=O)[C@H](CC(C)C)NC(=O)[C@H](CCCCN)NC(=O)[C@H](CCCCNC(=O)[C@H](CC(C)C)NC(=O)[C@H](CCCCN)NC(=O)[C@H](CCCCNC(=O)[C@H](CC(C)C)NC(=O)[C@@H](N)CCCCN)NC(=O)[C@H](CC(C)C)NC(=O)[C@@H](N)CCCCN)NC(=O)[C@H](CC(C)C)NC(=O)[C@H](CCCCN)NC(=O)[C@H](CCCCNC(=O)[C@H](CC(C)C)NC(=O)[C@@H](N)CCCCN)NC(=O)[C@H](CC(C)C)NC(=O)[C@@H](N)CCCCN)NC(=O)[C@H](CC(C)C)NC(=O)[C@H](CCCCN)NC(=O)[C@H](CCCCNC(=O)[C@H](CC(C)C)NC(=O)[C@H](CCCCN)NC(=O)[C@H](CCCCNC(=O)[C@H](CC(C)C)NC(=O)[C@@H](N)CCCCN)NC(=O)[C@H](CC(C)C)NC(=O)[C@@H](N)CCCCN)NC(=O)[C@H](CC(C)C)NC(=O)[C@H](CCCCN)NC(=O)[C@H](CCCCNC(=O)[C@H](CC(C)C)NC(=O)[C@@H](N)CCCCN)NC(=O)[C@H](CC(C)C)NC(=O)[C@@H](N)CCCCN)C(N)=O [MSt-267, (KL)8(KKL)4(KKL)2(KKLKC12)] (I: H-KLK([Leu-Lys])KLKKLKKLK(Lauroyl)-NH2 / II: H-KLK([Leu-Lys])KLKKL / III: H-KLK([Leu-Lys])KL / IV: H-KLK([Leu-Lys])KL; amide I:6-IV:C, I:9-II:C, II:6-III:C) |
| 3 (≈ 0.683 µM) | 2 (≈ 0.455 µM) | 2 (≈ 0.455 µM) | CC(C)C[C@H](NC(=O)[C@@H](N)CCN)C(=O)NCCCC[C@H](NC(=O)[C@H](CC(C)C)NC(=O)[C@@H](N)CCN)C(=O)N[C@@H](CCN)C(=O)N[C@@H](Cc1c[nH]c2ccccc12)C(=O)NCCCC[C@H](NC(=O)[C@H](Cc1c[nH]c2ccccc12)NC(=O)[C@H](CCN)NC(=O)[C@H](CCCCNC(=O)[C@H](CC(C)C)NC(=O)[C@@H](N)CCN)NC(=O)[C@H](CC(C)C)NC(=O)[C@@H](N)CCN)C(=O)N[C@@H](CCN)C(=O)N[C@@H](C)C(=O)NCCCC[C@H](NC(=O)[C@H](C)NC(=O)[C@H](CCN)NC(=O)[C@H](CCCCNC(=O)[C@H](Cc1c[nH]c2ccccc12)NC(=O)[C@H](CCN)NC(=O)[C@H](CCCCNC(=O)[C@H](CC(C)C)NC(=O)[C@@H](N)CCN)NC(=O)[C@H](CC(C)C)NC(=O)[C@@H](N)CCN)NC(=O)[C@H](Cc1c[nH]c2ccccc12)NC(=O)[C@H](CCN)NC(=O)[C@H](CCCCNC(=O)[C@H](CC(C)C)NC(=O)[C@@H](N)CCN)NC(=O)[C@H](CC(C)C)NC(=O)[C@@H](N)CCN)C(=O)N[C@@H](CCN)C(=O)N[C@@H](Cc1c[nH]c2ccccc12)C(N)=O [MSt-206, (DabL)8(KDabW)4(KDabA)2(KDabW)] (I: H-[Dab]LK([Leu-Dab])[Dab]WK[Dab]AK[Dab]W-NH2 / II: H-[Dab]LK([Leu-Dab])[Dab]WK[Dab]A / III: H-[Dab]LK([Leu-Dab])[Dab]W / IV: H-[Dab]LK([Leu-Dab])[Dab]W; amide I:6-IV:C, I:9-II:C, II:6-III:C; N-terminus assumed) |
| 1 (≈ 0.426 µM) | 4 (≈ 1.71 µM) | 1 (≈ 0.426 µM) | CCCCCCCC(=O)NCCCC[C@H](NC(=O)[C@H](CC(C)C)NC(=O)[C@H](CCCCN)NC(=O)[C@H](CCCCNC(=O)[C@H](CC(C)C)NC(=O)[C@H](CCCCN)NC(=O)[C@H](CCCCNC(=O)[C@H](CC(C)C)NC(=O)[C@@H](N)CCCCN)NC(=O)[C@H](CC(C)C)NC(=O)[C@@H](N)CCCCN)NC(=O)[C@H](CC(C)C)NC(=O)[C@H](CCCCN)NC(=O)[C@H](CCCCNC(=O)[C@H](CC(C)C)NC(=O)[C@@H](N)CCCCN)NC(=O)[C@H](CC(C)C)NC(=O)[C@@H](N)CCCCN)C(N)=O [MSt-261, (KL)4(KKL)2(KKLKC8)] (I: H-KLK([Leu-Lys])KLKKLK(Octanoyl)-NH2 / II: H-KLK([Leu-Lys])KL; amide I:6-II:C) |
|  | 8 (≈ 3.01 µM) | >90 | CC(C)C[C@H](NC(=O)[C@H](CCCCNC(=O)[C@@H](N)CC(C)C)NC(=O)[C@@H](N)CC(C)C)C(=O)NCCCC[C@H](NC(=O)[C@H](CC(C)C)NC(=O)[C@H](CCCCNC(=O)[C@@H](N)CC(C)C)NC(=O)[C@@H](N)CC(C)C)C(=O)N[C@@H](CCCCN)C(=O)NCCCC[C@H](NC(=O)[C@H](CCCCN)NC(=O)[C@H](CCCCNC(=O)[C@H](CC(C)C)NC(=O)[C@H](CCCCNC(=O)[C@@H](N)CC(C)C)NC(=O)[C@@H](N)CC(C)C)NC(=O)[C@H](CC(C)C)NC(=O)[C@H](CCCCNC(=O)[C@@H](N)CC(C)C)NC(=O)[C@@H](N)CC(C)C)C(=O)N[C@@H](CCCCN)C(N)=O [MSt-149, (L)8(KL)4(KK)2(KK)NH2] (I: H-LK(Leu)LK([Leu-LeuLys(Leu)])KKK-NH2 / II: H-LK(Leu)LK([Leu-LeuLys(Leu)])K; amide I:6-II:C; N-terminus assumed) |
|  | 6 (≈ 1.28 µM) | >95 | CC(C)C[C@H](NC(=O)[C@H](CC(C)C)NC(=O)[C@H](CCCCNC(=O)[C@H](CC(C)C)NC(=O)[C@H](CC(C)C)NC(=O)[C@H](CCCCNC(=O)[C@H](CCCCN)NC(=O)[C@H](CCCCN)NC(=O)[C@H](CCCCNC(=O)[C@H](CCCCN)NC(=O)[C@@H](N)CCCCN)NC(=O)[C@H](CCCCN)NC(=O)[C@@H](N)CCCCN)NC(=O)[C@H](CCCCN)NC(=O)[C@H](CCCCN)NC(=O)[C@H](CCCCNC(=O)[C@H](CCCCN)NC(=O)[C@@H](N)CCCCN)NC(=O)[C@H](CCCCN)NC(=O)[C@@H](N)CCCCN)NC(=O)[C@H](CC(C)C)NC(=O)[C@H](CC(C)C)NC(=O)[C@H](CCCCNC(=O)[C@H](CCCCN)NC(=O)[C@H](CCCCN)NC(=O)[C@H](CCCCNC(=O)[C@H](CCCCN)NC(=O)[C@@H](N)CCCCN)NC(=O)[C@H](CCCCN)NC(=O)[C@@H](N)CCCCN)NC(=O)[C@H](CCCCN)NC(=O)[C@H](CCCCN)NC(=O)[C@H](CCCCNC(=O)[C@H](CCCCN)NC(=O)[C@@H](N)CCCCN)NC(=O)[C@H](CCCCN)NC(=O)[C@@H](N)CCCCN)C(N)=O [MSt-140, (KK)8(KKK)4(KLL)2(KLL)] (I: H-KKK([Lys-Lys])KKKLLKLL-NH2 / II: H-KKK([Lys-Lys])KKKLL / III: H-KKK([Lys-Lys])KK / IV: H-KKK([Lys-Lys])KK; amide I:6-IV:C, I:9-II:C, II:6-III:C) |
|  | 14 (≈ 8.2 µM) | 13 (≈ 7.62 µM) | CC(C)C[C@H](NC(=O)[C@H](CCCCN)NC(=O)[C@H](CC(C)C)NC(=O)[C@H](CCCCN)NC(=O)[C@H](CC(C)C)NC(=O)[C@H](CCCCN)NC(=O)[C@H](CC(C)C)NC(=O)[C@H](CCCCN)NC(=O)[C@H](CC(C)C)NC(=O)[C@H](CCCCN)NC(=O)[C@H](CC(C)C)NC(=O)[C@H](CCCCN)NC(=O)[C@H](CC(C)C)NC(=O)[C@@H](N)CCCCN)C(N)=O [MSt-117, KLKLKLKLKLKLKL, reference compound] (H-KLKLKLKLKLKLKL-NH2) |

Reference: US10336792B2, “Antimicrobial peptide dendrimers” (priority 2014, dated 2019)
